Results: patent US7335636B2, “SPRR1A and axonal regeneration” (Yale University, priority 2001, dated 2008)
Entries after “also recorded” stand apart in the source; their conditions may differ.

Experiments:
SPRR1A = assay: Immunoblot for SPRR1A protein in oligonucleotide-treated adult mouse DRG cultures; assay type: cell-based; details: preconditioned adult DRG neurons, 36 hr culture with oligonucleotide 10-50 μM
adult mouse DRG neurons = assay: Antisense experiment: neurite outgrowth and branching of adult mouse DRG cultures; assay type: cell-based
Protocol: DRG cultures and neurite outgrowth analysis. Embryonic day 7 (E7) chick, embryonic day 13 chick, or adult mouse DRGs were dissected and dissociated with 0.25% trypsin for 15 min at 37° C. For adult mouse DRG preparations, preincubation with 1 mg/ml collagenase was included. For preconditioned adult mouse DRG cultures, sciatic nerve lesions were performed 4 d before death and L3-L5 DRG dissection. Dissociated cells were preplated on tissue culture-treated plastic dishes for 1 hr at 37° C. Non-adherent cells (predominantly neurons) were collected and plated on plastic chamber slides coated with poly-L-lysine (100 μg)/laminin (10 μg/ml). In some cases, the substrate was coated with 45 ng/mm^2 bovine CNS myelin or 34 ng/mm^2 purified GST-Nogo-66 protein as described previously (Jin and Strittmatter, 1997; GrandPre et al., 2000; Fournier et al., 2001). After 6-36 hr, cells were fixed and stained, and neurite outgrowth was quantified. Images of each culture were captured with Olympix Software and analyzed with Scion Image (Jin and Strittmatter, 1997; GrandPre et al., 2000; Fournier et al., 2001). The total neurite length for each neuron was determined for 50-100 neurons in each experiment. The total number of branch points was divided by the total neurite length to obtain a branching index.
Antisense experiment. Phosphorothioate sense and antisense oligonucleotides spanning the translation initiation site (italic type) of the mouse sprr1a sequence (sense, p-thio-[…] (SEQ ID NO:4); antisense, p-thio-[…] (SEQ ID NO:5)) were generated. Adult mouse DRG cultures were incubated with purified oligonucleotides at concentrations of 10-50 μM. Immunoblot and immunohistological analysis was performed after 36 hr of culture.

E8 chick DRGs = assay: Neurite outgrowth of E8 chick DRGs triturated with SPRR1A-derived peptide; assay type: cell-based; details: trituration, 6 hours after plating on laminin
Text: Herpes simplex virus preparation and protein trituration. The coding region of mouse SPRR1A was amplified by PCR with an in-frame C-terminal Myc epitope and ligated to the pHSVprPUC vector. Similarly, the S100C coding region with a Myc tag was ligated to pHSVprPUC vector. The resulting plasmids were transfected into 2-2 cells with Fugene and then superinfected with 5 dl 1.2 herpes simplex virus (HSV) helper virus 1 d later as described previously (Nakamura et al., 1998; Takahashi et al., 1998, 1999). Recombinant virus was amplified through three passages and stored at −80° C. Freshly dissociated DRG neurons were allowed to adhere to cultured dishes for 30 min and then incubated with HSV preparations encoding for SPRR1A, S100C, enhanced green fluorescent protein (EGFP), or Nogo receptor. […]
(§1) DRG cultures and neurite outgrowth analysis. […] After 6-36 hr, cells were fixed and stained, and neurite outgrowth was quantified. Images of each culture were captured with Olympix Software and analyzed with Scion Image (Jin and Strittmatter, 1997; GrandPre et al., 2000; Fournier et al., 2001). The total neurite length for each neuron was determined for 50-100 neurons in each experiment. […]
An SPRR1A-derived peptide acts as an agent to promote axon regeneration. […] This 24 amino acid peptide was triturated into E8 chick DRGs and neurite length was measured 6 hours after the cells were plated on laminin (FIG. 8). […]

F-actin = assay: Actin cosedimentation and immunoprecipitation assays; assay type: binding; details: in the presence or absence of S100C protein
Protocol: Actin cosedimentation assay. The actin cosedimentation protocol has been described previously (Gonzalez et al., 1998; Sakaguchi et al., 2000). Purified monomeric actin (G-actin, 25 μM; Cytoskeleton, Denver, Colo.) was incubated with recombinant SPRR1A (200 nM), GST-S100C (2 μM), or GST (2 μM) in an actin polymerization buffer (5 mM Tris, pH 8.0, 1.0 mM CaCl2, 1.0 mM DTT, 0.2 mM ATP, 100 mM KCl, 2.0 mM MgCl2) at room temperature for 60 min. Polymerized actin was sedimented by centrifugation at […] for 1 hr. Equal volumes of the particulate and supernatant fractions were analyzed by SDS-PAGE and immunoblotting.

chick E7 DRG neurons = assay: Neurite outgrowth of embryonic chick DRG neurons after HSV infection or protein trituration; assay type: cell-based
Text: Herpes simplex virus preparation and protein trituration. The coding region of mouse SPRR1A was amplified by PCR with an in-frame C-terminal Myc epitope and ligated to the pHSVprPUC vector. Similarly, the S100C coding region with a Myc tag was ligated to pHSVprPUC vector. The resulting plasmids were transfected into 2-2 cells with Fugene and then superinfected with 5 dl 1.2 herpes simplex virus (HSV) helper virus 1 d later as described previously (Nakamura et al., 1998; Takahashi et al., 1998, 1999). Recombinant virus was amplified through three passages and stored at −80° C. Freshly dissociated DRG neurons were allowed to adhere to cultured dishes for 30 min and then incubated with HSV preparations encoding for SPRR1A, S100C, enhanced green fluorescent protein (EGFP), or Nogo receptor. Recombinant SPRR1A and S100C protein were triturated into dissociated DRGs by repetitive pipetting in the presence of 1 mg/ml of protein as described previously (Jin and Strittmatter, 1997).
as §1

## p-thio-GTGGGAACTCATGGTTAGAT (all phosphorothioate, sugars by position and methylation of C not given here) [antisense oligonucleotide]
SPRR1A
  SPRR1A protein level (immunoblot, immunohistochemistry): significantly and selectively decreased; also recorded: decreases to nearly basal levels
Adult mouse DRG neurons; adult preconditioned DRG neurons, 36 hr, vs sense-treated
  neurite length, preconditioned neurons: significant decrease in neurite length
Adult mouse DRG neurons; adult preconditioned DRG neurons, vs sense-treated
  axonal branching index, preconditioned neurons: marked increase
Adult mouse DRG neurons; naive adult mouse DRG neurons
  effect on naive neurons (do not express SPRR1A): lack of effect

## acetyl-HPKAPEPCNPKVPEPCQPKVPEPC-amide (Ac-HPKAPEPCNPKVPEPCQPKVPEPC-NH2; cysteine pairing not given here; listed as Mus musculus) [SEQ ID NO:3, 24 amino acid peptide consisting of three XPKXPEPC octapeptide repeats of SPRR1A]
E8 chick DRGs; 5-25 μM peptide
  enhancement of average neurite outgrowth: 1.7 fold
E8 chick DRGs; 100-500 μM peptide
  enhancement of neurite outgrowth: 2.5 fold

B1: SPRR1A: Recombinant mouse small proline-rich repeat protein SPRR1A purified from transformed Escherichia coli (protein, listed as Mus musculus)
chain: MSSHQQKQPCTVPPQLHQQQVKQPCQPPPQEPCAPKTKDPCHPVPEPCNPKGPEPCHPKAPEPCHPKAPEPCNPKVPEPCQPKVPEPCQPKVPEPCNPKVPEPCQPKAPEPCHPKAPEPCHPVVPEPCPSTVTPSPYQQKTKQK
F-actin
  direct physical association with F-actin: no direct physical association
Chick E7 DRG neurons; no trituration
  neurite outgrowth, protein added to the culture medium without trituration: does not alter outgrowth
Chick E7 DRG neurons; recombinant protein triturated into DRG neurons, 1 mg/ml
  neurite outgrowth in neurons triturated with purified protein: increase in neurite outgrowth
